Results reported in PubChem BioAssay (NCI).
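How tested: cells in 96-well plates exposed to compound for 48 hours at five concentrations. The concentration for full growth arrest is given as TGI.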

Assays:
Assay in all cases: DTP human tumour cell line panel, 48 h
[1] = tested on: RXF 393 renal
[2] = tested on: HCT-15 colon
[3] = tested on: UACC-62 melanoma
[4] = tested on: OVCAR-5 ovarian
[5] = tested on: CAKI-1 renal
[6] = tested on: SW-620 colon
[7] = tested on: NCI-H522 lung
[8] = tested on: SF-295 CNS
[9] = tested on: PC-3 prostate
[10] = tested on: OVCAR-8 ovarian
[11] = tested on: HS 578T breast
[12] = tested on: NCI/ADR-RES ovarian
[13] = tested on: SK-MEL-28 melanoma
[14] = tested on: MOLT-4 leukemia
[15] = tested on: MCF7 breast
[16] = tested on: IGROV1 ovarian
[17] = tested on: KM12 colon
[18] = tested on: HOP-62 NSCLC
[19] = tested on: SR leukemia
[20] = tested on: SNB-75 CNS
[21] = tested on: UACC-257 melanoma
[22] = tested on: 786-0 renal
[23] = tested on: SK-MEL-5 melanoma
[24] = tested on: HCC-2998 colon
[25] = tested on: HCT-116 colon
[26] = tested on: COLO 205 colon
[27] = tested on: MDA-N
[28] = tested on: MDA-MB-231 breast
[29] = tested on: UO-31 renal
[30] = tested on: SF-268 CNS
[31] = tested on: EKVX NSCLC
[32] = tested on: U251 CNS
[33] = tested on: TK-10 renal
[34] = tested on: A549 NSCLC
[35] = tested on: DU-145 prostate
[36] = tested on: OVCAR-4 ovarian
[37] = tested on: SF-539 CNS
[38] = tested on: NCI-H23 lung
[39] = tested on: NCI-H460 lung
[40] = tested on: HT29 colon
[41] = tested on: SNB-19 CNS
[42] = tested on: MALME-3M melanoma
[43] = tested on: ACHN renal
[44] = tested on: T-47D breast
[45] = tested on: SN12C renal
[46] = tested on: A498 renal
[47] = tested on: SK-OV-3 ovarian
[48] = tested on: HOP-92 NSCLC
[49] = tested on: BT-549 breast
[50] = tested on: MDA-MB-435
[51] = tested on: CCRF-CEM leukemia
[52] = tested on: NCI-H226 lung
[53] = tested on: OVCAR-3 ovarian
[54] = tested on: K-562 leukemia
[55] = tested on: LOX IMVI melanoma
[56] = tested on: HL-60(TB) leukemia
[57] = tested on: SK-MEL-2 melanoma
[58] = tested on: M14 melanoma

O=C(CC(C(=O)c1cccs1)c1ccsc1)c1cccs1 (stereo not drawn)
TGI [1]: > 100 µM
TGI [2]: > 100 µM
TGI [3]: > 100 µM
TGI [4]: > 100 µM
TGI [5]: > 100 µM
TGI [6]: > 100 µM
TGI [7]: > 100 µM
TGI [8]: > 100 µM
TGI [9]: > 100 µM
TGI [10]: > 100 µM
TGI [11]: > 100 µM
TGI [12]: > 100 µM
TGI [13]: > 100 µM
TGI [14]: > 100 µM
TGI [15]: > 100 µM
TGI [16]: > 100 µM
TGI [17]: > 100 µM
TGI [18]: > 100 µM
TGI [19]: > 100 µM
TGI [20]: > 100 µM
TGI [21]: > 100 µM
TGI [22]: > 100 µM
TGI [23]: > 100 µM
TGI [24]: > 100 µM
TGI [25]: > 100 µM
TGI [26]: > 100 µM
TGI [27]: 80.5 µM
TGI [28]: > 100 µM
TGI [29]: > 100 µM
TGI [30]: > 100 µM
TGI [31]: 76.8 µM
TGI [32]: > 100 µM
TGI [33]: > 100 µM
TGI [34]: > 100 µM
TGI [35]: > 100 µM
TGI [36]: > 100 µM
TGI [37]: > 100 µM
TGI [38]: > 100 µM
TGI [39]: > 100 µM
TGI [40]: > 100 µM
TGI [41]: > 100 µM
TGI [42]: > 100 µM
TGI [43]: > 100 µM
TGI [44]: > 100 µM
TGI [45]: > 100 µM
TGI [46]: > 100 µM
TGI [47]: > 100 µM
TGI [48]: > 100 µM
TGI [49]: > 100 µM
TGI [50]: 92.4 µM
TGI [51]: > 100 µM
TGI [52]: > 100 µM
TGI [53]: > 100 µM
TGI [54]: > 100 µM

COc1cc(C)c2c(=O)c3ccccc3n(C)c2c1
TGI [1]: 40.4 µM
TGI [2]: > 100 µM
TGI [3]: 39.2 µM
TGI [4]: > 100 µM
TGI [5]: 76.5 µM
TGI [6]: > 100 µM
TGI [7]: 5.74 µM
TGI [55]: 34.4 µM
TGI [8]: 34.9 µM
TGI [9]: 78.2 µM
TGI [10]: 78.8 µM
TGI [11]: 72.6 µM
TGI [12]: > 100 µM
TGI [13]: 89.3 µM
TGI [14]: > 100 µM
TGI [15]: > 100 µM
TGI [16]: 89.8 µM
TGI [17]: > 100 µM
TGI [19]: 43 µM
TGI [20]: 72.8 µM
TGI [21]: 77 µM
TGI [22]: > 100 µM
TGI [24]: > 100 µM
TGI [56]: 69.7 µM
TGI [25]: 34 µM
TGI [26]: 91.1 µM
TGI [57]: 78.3 µM
TGI [27]: > 100 µM
TGI [28]: > 100 µM
TGI [30]: 95.9 µM
TGI [31]: 91.9 µM
TGI [32]: 44.8 µM
TGI [33]: > 100 µM
TGI [34]: > 100 µM
TGI [35]: > 100 µM
TGI [36]: 45.6 µM
TGI [37]: 34 µM
TGI [38]: 77 µM
TGI [39]: > 100 µM
TGI [40]: 29 µM
TGI [41]: 98.6 µM
TGI [42]: 73.2 µM
TGI [43]: 55.7 µM
TGI [45]: 41.5 µM
TGI [46]: 56.1 µM
TGI [47]: > 100 µM
TGI [48]: 25.8 µM
TGI [49]: 52.7 µM
TGI [50]: > 100 µM
TGI [51]: 75.4 µM
TGI [58]: 60.8 µM
TGI [52]: 69 µM
TGI [53]: 52.7 µM
TGI [54]: 39.1 µM
